This assay deals with T1, hMCP-1 receptor, MCP-1 receptor B (CCR2B) (Homo sapiens, UniProt P41597).
T1 construct: expressed in transfected cells; host or cells: CHO-K1 (clone 7, CHO-CCR2B), membrane fragments
T1 sequence (P41597 1-360 isoform P41597-2): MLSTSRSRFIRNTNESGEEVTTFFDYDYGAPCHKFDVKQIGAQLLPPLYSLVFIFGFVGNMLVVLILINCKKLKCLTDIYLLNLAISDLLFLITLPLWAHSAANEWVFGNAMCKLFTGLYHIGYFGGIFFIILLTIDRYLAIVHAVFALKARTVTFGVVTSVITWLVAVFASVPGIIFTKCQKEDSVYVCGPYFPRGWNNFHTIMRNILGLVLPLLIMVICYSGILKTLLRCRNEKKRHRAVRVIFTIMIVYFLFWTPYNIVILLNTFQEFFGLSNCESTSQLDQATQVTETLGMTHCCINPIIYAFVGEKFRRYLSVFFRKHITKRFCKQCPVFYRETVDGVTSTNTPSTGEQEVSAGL
Briefly: hMCP-1 receptor-binding assay. As to conditions: competition with 100 pM 125I-labelled MCP-1, CHO-CCR2B cell membranes, concentration range 0.1-200 μM. From the text:
a) hMCP-1 Receptor-binding Assay
The MCP-1 receptor B (CCR2B) cDNA was cloned by PCR from THP-1 cell RNA using suitable oligonucleotide primers based on the published MCP-1 receptor sequences (Charo et al., 1994, Proc. Natl. Acad. Sci. USA, 91, 2752). The resulting PCR products were cloned into vector PCR-II™ (InVitrogen, San Diego, Calif.). Error free CCR2B cDNA was subcloned as a Hind III-Not I fragment into the eukaryotic expression vector pCDNA3 (In Vitrogen) to generate pCDNA3/CC-CKR2A and pCDNA3/CCR2B respectively.
Linearised pCDNA3/CCR2B DNA was transfected into CHO-K1 cells by calcium phosphate precipitation (Wigler et al., 1979, Cell, 16, 777). Transfected cells were selected by the addition of Geneticin Sulphate (G418, Gibco BRL) at 1 mg/ml, 24 hours after the cells had been transfected. Preparation of RNA and Northern blotting were carried out as described previously (Needham et al., 1995, Prot. Express. Purific., 6, 134). CHO-K1 clone 7 (CHO-CCR2B) was identified as the highest MCP-1 receptor B expressor.
CHO-CCR2B cells were grown in DMEM supplemented with 10% foetal calf serum, 2 mM glutamine, 1× Non-Essential Amino Acids, 1× Hypoxanthine and Thymidine Supplement and Penicillin-Streptomycin (at 50 μg streptomycin/mi, Gibco BRL). […]

As a reminder, the IC50 is the concentration needed to halve the response being measured. A low value points to greater potency.

Turning to `O=C(O)c1cc2ccccc2n1S(=O)(=O)c1ccc(Cl)c(Cl)c1` [Example 2.01, N-(3,4-Dichlorophenylsulphonyl)indole-2-carboxylic acid], the IC50 worked out at 10 µM.

The values are drawn from US6288103A, “Indole derivatives as MCP-1 receptor antagonists” (Zeneca Limited, priority 1997, dated 2001).
